This note sets out measurements from patent US20190119282A1, “IMIDAZOPYRIDAZINES USEFUL AS INHIBITORS OF THE PAR-2 SIGNALING PATHWAY” (Vertex Pharmaceuticals Incorporated, priority 2013, published 2019).

Marks after values point to notes of the source that are not given here.

The subject of assay [1] is tryptase-induced mechanical hypersensitivity. Nature of the assay: Rat tryptase-induced mechanical hypersensitivity model. The class given is in vivo, Sprague Dawley rats. Conditions: given 30 minutes post tryptase challenge. The procedure: Male Sprague Dawley rats and BALB/c mice were housed in groups in a temperature controlled room and were acclimatized in the animal facility for at least three days prior to use. Experiments were performed during the light phase of the cycle. Animals have food and water ad libitum.
Example 64: Rat Tryptase-Induced Mechanical Hypersensitivity Model
Peripheral sensitization was induced by intra-dermal administration of 500 ng of tryptase in a volume of 10 ul PBS under isoflurane anesthesia. Rats were then placed on a wire mesh grid in separate compartments and allowed to acclimatize before testing. Mechanical hypersensitivity was assessed 30 min after tryptase injection using calibrated von Frey filaments applied perpendicular to the plantar surface of the affected paw using the up-and-down method. Test compounds or vehicle (0.5% MC/0.1% SDS) were systemically administered at doses indicated in a volume of 5 mL/kg 3-18 h before the tryptase challenge (Table 11) or 30 minutes post tryptase challenge (Table 12).
Data are expressed as the mean % effect. Statistical significance was assessed using t-test for comparison between naive and inflamed rats, and one-way ANOVA followed by post-hoc comparison test for overall drug effectiveness. A difference between groups is considered significant with a p value of <0.05. *, p<0.05; **, p<0.01; ***, p<0.001 vs. vehicle.

Assay [2] relates to carrageenan-induced paw edema. Nature of the assay: Rat carrageenan-induced paw edema model. The class given is in vivo, Sprague Dawley rats. Conditions: for % inhibition of carrageenan induced paw edema: given before carrageenan challenge; for % inhibition of an established carrageenan induced rat paw edema: given 2 hours post carrageenan challenge. The essentials:
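Rats received intraplantar 1% carrageenan (100 ul) under isoflurane. Test compound in 0.5% MC/0.1% SDS was given systemically at 5 mL/kg either 1-3 h before or 2 h after the challenge. Paw swelling was measured by plethysmometer at 2-6 h and expressed as mean % effect.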
For orientation: In the carrageenan paw model, swelling and tenderness develop within hours.

On to `Cc1nc(C(=O)N2CCN(C(=O)c3cn4nc(-c5ccc(F)cc5)cc(C(C)(C)C)c4n3)C(C)(C)C2)n[nH]1` [Compound I-343, (8-(tert-butyl)-6-(4-fluorophenyl)imidazo[1,2-b]pyridazin-2-yl)(2,2-dimethyl-4-(5-methyl-1H-1,2,4-triazole-3-carbonyl)piperazin-1-yl)methanone], for which the “% inhibition of an established tryptase-induced nociception” value in assay [1] (dose 3 mg/kg) is recorded as 12%; in assay [1] (dose 10 mg/kg), 23%; in assay [1] (dose 30 mg/kg), 49* %. Besides, the “% inhibition of carrageenan induced paw edema” value in assay [2] (dose 0.3 mg/kg) is reported as 19* %; in assay [2] (dose 3 mg/kg), 28* %; in assay [2] (dose 10 mg/kg), 34* %; in assay [2] (dose 30 mg/kg), 50*** %. For the same compound, the “% inhibition of an established carrageenan induced rat paw edema” value is 32** % in assay [2] (dose 3 mg/kg), 49** % in assay [2] (dose 10 mg/kg), 58** % in assay [2] (dose 30 mg/kg) and 70*** % in assay [2] (dose 60 mg/kg).
